Reference: article PMC11620503 (Antimicrobial Agents and Chemotherapy, 2024)
In brackets after ≈: the same amount, converted by molar mass. Read-outs that look alike come from different tables or passages of the source.

How the values were obtained:
Experiment in all cases: MIC, broth microdilution
[1] = tested on: 207 Enterobacterales including carbapenem-resistant isolates; assay type: cell-based
[2] = tested on: MEM-nonsusceptible Enterobacterales; assay type: cell-based
[3] = tested on: serine-carbapenemase-producing isolates (Enterobacterales); assay type: cell-based
[4] = tested on: MBL-producing isolates (Enterobacterales); assay type: cell-based
[5] = tested on: 55 isolates of A. baumannii; assay type: cell-based, Acinetobacter baumannii; conditions: Acinetobacter baumannii (55)
96 P. aeruginosa = assay type: cell-based, Pseudomonas aeruginosa; conditions: Pseudomonas aeruginosa (96)
[6] = tested on: MEM-, imipenem/relebactam-, and ceftolozane/tazobactam-nonsusceptible P. aeruginosa; assay type: cell-based, Pseudomonas aeruginosa; conditions: for CLSI MIC interpretation I (intermediate) / CLSI MIC interpretation R (resistant) / CLSI MIC interpretation S (susceptible): CLSI breakpoints, marked c: breakpoints for β-lactam alone; for MIC50 / MIC90: Pseudomonas aeruginosa, fixed concentration (μg/mL) in label; for MIC50: read-out: MIC50; for MIC90: read-out: MIC90
[7] = tested on: MEM-nonsusceptible Enterobacterales with serine-carbapenemases; assay type: cell-based
[8] = tested on: MEM-nonsusceptible Enterobacterales with metallo-carbapenemases; assay type: cell-based
[9] = CLSI breakpoints, marked c: breakpoints for β-lactam alone
[10] = fixed concentration (μg/mL) in label, read-out: MIC50
[11] = fixed concentration (μg/mL) in label, read-out: MIC90
[12] = Ceftolozane/tazobactam-nonsusceptible Pseudomonas aeruginosa (45)
[13] = Imipenem/relebactam-nonsusceptible Pseudomonas aeruginosa (43)
[14] = MEM-nonsusceptible Pseudomonas aeruginosa (76)

C[C@@H](O)[C@H]1C(=O)N2C(C(=O)O)=C(SCCN=CN)C[C@H]12 [Imipenem]
CLSI MIC interpretation I (intermediate) [1]: 7.7% | CLSI MIC interpretation R (resistant) [1]: 55.6% | CLSI MIC interpretation S (susceptible) [1]: 36.7% | MIC50 [1]: 4 µg/mL (≈ 13.4 µM) | MIC90 [1]: 32 µg/mL (≈ 107 µM) | CLSI MIC interpretation I (intermediate) [2]: 10.2% | CLSI MIC interpretation R (resistant) [2]: 79.5% | CLSI MIC interpretation S (susceptible) [2]: 10.2% | MIC50 [2]: 8 µg/mL (≈ 26.7 µM) | MIC90 [2]: > 32 µg/mL | CLSI MIC interpretation I (intermediate) [3]: 7.5% | CLSI MIC interpretation R (resistant) [3]: 68.8% | CLSI MIC interpretation S (susceptible) [3]: 23.8% | MIC50 [3]: 8 µg/mL (≈ 26.7 µM) | MIC90 [3]: > 32 µg/mL | CLSI MIC interpretation I (intermediate) [4]: 9.5% | CLSI MIC interpretation R (resistant) [4]: 70.3% | CLSI MIC interpretation S (susceptible) [4]: 20.3% | MIC50 [4]: 4 µg/mL (≈ 13.4 µM) | MIC90 [4]: > 32 µg/mL | CLSI MIC interpretation I (intermediate) [5, 9]: 3.6% | CLSI MIC interpretation R (resistant) [5, 9]: 87.3% | CLSI MIC interpretation S (susceptible) [5, 9]: 9.1% | MIC50 [5, 10]: 32 µg/mL (≈ 107 µM) | MIC90 [5, 11]: > 32 µg/mL | CLSI MIC interpretation I (intermediate) (96 P. aeruginosa; [9]): 3.1% | CLSI MIC interpretation R (resistant) (96 P. aeruginosa; [9]): 83.3% | CLSI MIC interpretation S (susceptible) (96 P. aeruginosa; [9]): 13.5% | MIC50 (96 P. aeruginosa; [10]): 16 µg/mL (≈ 53.4 µM) | MIC90 (96 P. aeruginosa; [11]): > 32 µg/mL | CLSI MIC interpretation I (intermediate) [6, 12]: 0% | CLSI MIC interpretation R (resistant) [6, 12]: 95.6% | CLSI MIC interpretation S (susceptible) [6, 12]: 4.4% | CLSI MIC interpretation I (intermediate) [6, 13]: 0% | CLSI MIC interpretation R (resistant) [6, 13]: 97.7% | CLSI MIC interpretation S (susceptible) [6, 13]: 2.3% | CLSI MIC interpretation I (intermediate) [6, 14]: 2.6% | CLSI MIC interpretation R (resistant) [6, 14]: 93.4% | CLSI MIC interpretation S (susceptible) [6, 14]: 3.9% | MIC50 [6, 12]: > 32 µg/mL | MIC90 [6, 12]: > 32 µg/mL | MIC50 [6, 13]: > 32 µg/mL | MIC90 [6, 13]: > 32 µg/mL | MIC50 [6, 14]: 32 µg/mL (≈ 107 µM) | MIC90 [6, 14]: > 32 µg/mL | CLSI MIC interpretation I (intermediate) [7]: 10.3% | CLSI MIC interpretation R (resistant) [7]: 84.5% | CLSI MIC interpretation S (susceptible) [7]: 5.2% | MIC50 [7]: 8 µg/mL (≈ 26.7 µM) | MIC90 [7]: > 32 µg/mL | CLSI MIC interpretation I (intermediate) [8]: 9.1% | CLSI MIC interpretation R (resistant) [8]: 81.8% | CLSI MIC interpretation S (susceptible) [8]: 9.1% | MIC50 [8]: 16 µg/mL (≈ 53.4 µM) | MIC90 [8]: > 32 µg/mL
